The values that follow come from US8304419B2, “Chemical compounds” (priority 2007, dated 2012).

Counter-ions that a name gives are not always drawn. Like-named read-outs stand apart in the source and are kept apart here. Some results are limits rather than exact numbers.

This assay deals with HIV wild type (WTRVA). Briefly: HeLa cell assay, wild type virus (WTRVA). The conditions noted are these: Human immunodeficiency virus 1, HeLa. More on the design: scale not given here. The format is cell-based, HIV-1.
[1] abbreviates: HeLa-CD4-LTR-β-gal cells, wild type virus, read-out: WTRVA activity level.
The mark [2] stands for this setting: HeLa cell assay, read-out: IC50 against WTRVA.

Regarding `CNCC(=O)Nc1ccc2[nH]c(C(=O)NCc3ccc(Cl)c(Oc4cc(Cl)cc(C#N)c4)c3F)cc2c1` [Example 119], under setting [1], the IC50 was less than 0.01 µM. The same measure, in the same setting: with `N#Cc1cc(Cl)cc(Oc2c(Cl)ccc(CNC(=O)c3cc4cc(OC(F)(F)F)ccc4[nH]3)c2F)c1` [Example 27, N-({4-chloro-3-[(3-chloro-5-cyanophenyl)oxy]-2-fluorophenyl}methyl)-5-[(trifluoromethyl)oxy]-1H-indole-2-carboxamide] the figure was 0.01 to 1 µM. Still for that read-out and setting: under `COc1ccc2[nH]c(C(=O)NCc3ccc(Cl)c(Oc4cc(Cl)cc(C#N)c4)c3)cc2c1` [Example 10, N-({4-chloro-3-[(3-chloro-5-cyanophenyl)oxy]phenyl}methyl)-5-(methyloxy)-1H-indole-2-carboxamide] stands 0.01 to 1 µM; under `COC(=O)c1ccc(C(=O)NCc2ccc(Cl)c(Oc3cc(Cl)cc(C#N)c3)c2F)cc1` [Example 15, Methyl 4-{[({4-chloro-3-[(3-chloro-5-cyanophenyl)oxy]-2-fluorophenyl}methyl)amino]carbonyl}benzoate], 0.01 to 1 µM; under `CC(=O)NCc1ccc2cc(C(=O)NCc3ccc(Cl)c(Oc4cc(Cl)cc(C#N)c4)c3F)[nH]c2c1` [Example 74, 6-[(acetylamino)methyl]-N-({4-chloro-3-[(3-chloro-5-cyanophenyl)oxy]-2-fluorophenyl}methyl)-1H-indole-2-carboxamide trifluoroacetate], less than 0.01 µM. Turning to `Cc1cc(C#N)cc(Oc2c(Cl)ccc(CNC(=O)c3[nH]c(C)nc3Cl)c2F)c1` [Example 305, 4-chloro-N-({4-chloro-3-[(3-cyano-5-methylphenyl)oxy]-2-fluorophenyl}methyl)-2-methyl-1H-imidazole-5-carboxamide trifluoroacetate], the IC50 under setting [2] is less than 0.01 µM. Regarding `N#Cc1cc(Cl)cc(Oc2c(Cl)ccc(CNC(=O)c3csnn3)c2F)c1` [Example 90, N-({4-chloro-3-[(3-chloro-5-cyanophenyl)oxy]-2-fluorophenyl}methyl)-1,2,3-thiadiazole-4-carboxamide], under setting [1], the IC50 was less than 0.01 µM. In the case of `N#Cc1cc(Cl)cc(Oc2c(Cl)ccc(CNC(=O)c3cc4cc(OC[C@H]5CNCCO5)ccc4[nH]3)c2F)c1` [Example 24, N-({4-Chloro-3-[(3-chloro-5-cyanophenyl)oxy]-2-fluorophenyl}methyl)-5-{[(2R)-2-morpholinylmethyl]oxy}-indole-2-carboxamide], under setting [1], the IC50 is less than 0.01 µM. The same measure, in the same setting: under `N#Cc1cc(Cl)cc(Oc2c(Cl)ccc(CNC(=O)c3ccccn3)c2F)c1` [Example 85, N-({4-chloro-3-[(3-chloro-5-cyanophenyl)oxy]-2-fluorophenyl}methyl)-2] stands less than 0.01 µM. As for `N#Cc1cc(Oc2c(Cl)ccc(CNC(=O)c3[nH]cnc3Br)c2F)cc(C(F)(F)F)c1` [Example 286, 4-bromo-N-[(4-chloro-3-{[3-cyano-5-(trifluoromethyl)phenyl]oxy}-2-fluorophenyl)methyl]-1H-imidazole-5-carboxamide], the IC50 under setting [2] is less than 0.01 µM. With `CC(C)(C)OC(=O)Nc1cccc2cc(C(=O)NCc3ccc(Cl)c(Oc4cc(Cl)cc(C#N)c4)c3F)[nH]c12` [Example 112, 1,1-dimethylethyl (2-{[({4-chloro-3-[(3-chloro-5-cyanophenyl)oxy]-2-fluorophenyl}methyl)amino]carbonyl}-1H-indol-7-yl)carbamate], under setting [1], the IC50 was in the range of 0.01 to 1 µM. On the same count and under the same terms, with `COc1ccc2[nH]c(C(=O)NCc3ccc(Cl)c(Oc4cc(Cl)cc(C#N)c4)c3F)cc2c1Br` [Example 73, 4-bromo-N-({4-chloro-3-[(3-chloro-5-cyanophenyl)oxy]-2-fluorophenyl}methyl)-5-(methyloxy)-1H-indole-2-carboxamide trifluoroacetate] the figure was 0.01 to 1 µM; with `N#Cc1cc(Cl)cc(Oc2c(Cl)ccc(CNC(=O)c3snnc3-c3ccccc3)c2F)c1` [Example 99, N-({4-chloro-3-[(3-chloro-5-cyanophenyl)oxy]-2-fluorophenyl}methyl)-4-phenyl-1,2,3-thiadiazole-5-carboxamide], more than 1 µM.
